Here are results for two molecules from US20150272950A1, “COMBINATION” (GLAXOSMITHKLINE LLC, priority 2012, published 2015).

The experiment concerns SKOV3 cells (human ovarian carcinoma). The experiment is described as follows: SKOV3 subcutaneous xenograft tumor growth inhibition in female SCID mice. Format: in vivo. As to conditions: 21 days, alone, SKOV3 tumors in SCID mice. On the procedure:
Female SCID mice were implanted subcutaneously with 5×10^6 SKOV3 cells (human ovarian carcinoma). When the tumor volume reached 300-400 mm^3, mice were block randomized to different treatment groups (n=8 mice/group). Mice received AKT inhibitor, Compound B (in this assay, Compound B, is used in the form of the free or unsalted compound), at 10 or 30 mg/kg, once daily (SID) for 21 days in 20% PEG-400, 1% DMSO in water. Compound A (in this assay, Compound A, is used in the form of monohydrochloride salt) was administered at 100 mg/kg, twice/day (BID) for 21 days either alone or in combination with Compound B. Mice were weighed and tumors measured by calipers twice weekly. Tumor volumes were calculated using the formula: tumor volume=(Length×Width^2)/2. The percentage of tumor growth inhibition was calculated on each day of tumor measurement using the formula: 100×[1-(average growth of the compound-treated tumors/average growth of vehicle-treated control tumors)].

`Cc1ccc(Nc2nccc(N(C)c3ccc4c(C)n(C)nc4c3)n2)cc1S(N)(=O)=O` [Compound A, 5-[[4-[(2,3-dimethyl-2H-indazol-6-yl)methylamino]-2-pyrimidinyl]amino]-2-methylbenzenesulfonamide, reference compound]: the “inhibition of tumor growth compared to vehicle treated mice” value (Compound A (monohydrochloride salt) 100 mg/kg, twice daily) is listed as 47%.

`Cn1ncc(Cl)c1-c1cc(C(=O)N[C@H](CN)Cc2ccc(F)c(F)c2)oc1Cl` [Compound B, N-{(1S)-2-amino-1-[(3,4-difluorophenyl)methyl]ethyl}-5-chloro-4-(4-chloro-1-methyl-1H-pyrazol-5-yl)-2-furancarboxamide]: the “inhibition of tumor growth compared to vehicle treated mice” value (Compound B (free compound) 10 mg/kg, once daily) amounted to 67% and the “inhibition of tumor growth compared to vehicle treated mice” value (Compound B (free compound) 30 mg/kg, once daily) was determined as 86%.
